Data from ChEMBL document CHEMBL1132660, “Three-dimensional quantitative structure-activity relationship study on cyclic urea derivatives as HIV-1 protease inhibitors: application of comparative molecular field analysis” (J Med Chem, 1999).

Molecular target: Human immunodeficiency virus type 1 protease (Human immunodeficiency virus 1, UniProt Q72874)
Experiment: Inhibition of HIV-1 protease

| SMILES | Ki |
| --- | --- |
| COc1cc(OC)cc(N2C(=O)N(Cc3cccc(C(=O)Nc4cnccn4)c3)[C@H](Cc3ccccc3)[C@H](O)[C@@H](O)[C@H]2Cc2ccccc2)c1 | 2.51 nM |
| COc1cccc(N2C(=O)N(Cc3cccc(C(=O)Nc4cccc(C)n4)c3)[C@H](Cc3ccccc3)[C@H](O)[C@@H](O)[C@H]2Cc2ccccc2)c1 | 0.053 nM |
| COc1cccc(N2C(=O)N(Cc3cccc(C(=O)Nc4ccccn4)c3)[C@H](Cc3ccccc3)[C@H](O)[C@@H](O)[C@H]2Cc2ccccc2)c1 | 0.047 nM |
| COc1cc(OC)cc(N2C(=O)N(Cc3cccc(C(=O)Nc4cccc(C)n4)c3)[C@H](Cc3ccccc3)[C@H](O)[C@@H](O)[C@H]2Cc2ccccc2)c1 | 0.7 nM |
| COc1cc(OC)cc(N2C(=O)N(Cc3cccc(C(=O)Nc4ccc(C)cn4)c3)[C@H](Cc3ccccc3)[C@H](O)[C@@H](O)[C@H]2Cc2ccccc2)c1 | 1.9 nM |
| COc1cc(OC)cc(N2C(=O)N(Cc3cccc(C(=O)Nc4ccccn4)c3)[C@H](Cc3ccccc3)[C@H](O)[C@@H](O)[C@H]2Cc2ccccc2)c1 | 0.86 nM |
| CC(C)(C)NC(=O)c1cccc(CN2C(=O)N(c3cccc(N)c3)[C@H](Cc3ccccc3)[C@H](O)[C@@H](O)[C@H]2Cc2ccccc2)c1 | 0.41 nM |
| O=C1N(Cc2ccc3ccccc3c2)[C@H](Cc2ccccc2)[C@H](O)[C@@H](O)[C@@H](Cc2ccccc2)N1C1CCCC1 | 0.28 nM |
| O=C(NCc1ccccc1)c1cccc(CN2C(=O)N(Cc3cccc(C(=O)NCc4ccccc4)c3)[C@H](Cc3ccccc3)[C@H](O)[C@@H](O)[C@H]2Cc2ccccc2)c1 | 0.43 nM |
| O=C(Nc1ccccn1)c1cccc(CN2C(=O)N(c3cccc([N+](=O)[O-])c3)[C@H](Cc3ccccc3)[C@H](O)[C@@H](O)[C@H]2Cc2ccccc2)c1 | 0.096 nM |
| CC(C)(C)CCN1C(=O)N(CCC(C)(C)C)[C@H](Cc2ccccc2)[C@H](O)[C@@H](O)[C@H]1Cc1ccccc1 | 36 nM |
| Nc1cccc(N2C(=O)N(Cc3cccc(C(=O)Nc4cnccn4)c3)[C@H](Cc3ccccc3)[C@H](O)[C@@H](O)[C@H]2Cc2ccccc2)c1 | 0.016 nM |
| N#CCNC(=O)c1cccc(CN2C(=O)N(C(=O)CNC(=O)c3ccccc3)[C@H](Cc3ccccc3)[C@H](O)[C@@H](O)[C@H]2Cc2ccccc2)c1 | 0.024 nM |
| Nc1cccc(N2C(=O)N(Cc3cccc(C(=O)Nc4nc5ccccc5[nH]4)c3)[C@H](Cc3ccccc3)[C@H](O)[C@@H](O)[C@H]2Cc2ccccc2)c1 | 0.023 nM |
| O=C(NCC1CC1)c1cccc(CN2C(=O)N(Cc3cccc(C(=O)NCC4CC4)c3)[C@H](Cc3ccccc3)[C@H](O)[C@@H](O)[C@H]2Cc2ccccc2)c1 | 0.741 nM |
| COc1cccc(N2C(=O)N(Cc3cccc(C(=O)Nc4cnccn4)c3)[C@H](Cc3ccccc3)[C@H](O)[C@@H](O)[C@H]2Cc2ccccc2)c1 | 0.038 nM |
| Nc1cccc(N2C(=O)N(Cc3cccc(C(=O)Nc4ncc[nH]4)c3)[C@H](Cc3ccccc3)[C@H](O)[C@@H](O)[C@H]2Cc2ccccc2)c1 | 0.012 nM |
| COc1cccc(N2C(=O)N(Cc3cccc(C(=O)Nc4ccc(C)cn4)c3)[C@H](Cc3ccccc3)[C@H](O)[C@@H](O)[C@H]2Cc2ccccc2)c1 | 0.069 nM |
| Cc1ccc(NC(=O)c2cccc(CN3C(=O)N(c4cccc(N)c4)[C@H](Cc4ccccc4)[C@H](O)[C@@H](O)[C@H]3Cc3ccccc3)c2)nc1 | 0.075 nM |
